ChEMBL document CHEMBL1138147, “Respiratory syncytial virus fusion inhibitors. Part 3: Water-soluble benzimidazol-2-one derivatives with antiviral activity in vivo” (Bioorg Med Chem Lett, 2006)

How the values were obtained:
[1] = test system: Respiratory syncytial virus; assay: Antiviral activity against RSV Long strain in human Hep2 cells; type: functional, organism-based; settings: HEp-2
[2] = test system: HEp-2; assay: Cytotoxicity against human Hep2 cells infected with RSV Long strain; type: functional
[3] = Therapeutic index (CC50/EC50) for RSV infected Hep2 cells; type: cell-based, HEp-2; settings: human, read-out: Ratio CC50/EC50
[4] = test system: Cotton rat; assay: Efficacy in cotton rat measured as reduction in log TCID50 of RSV per gram of lung at 90 mg/kg, ip; type: functional, Sigmodon; settings: route intraperitoneal
[5] = test system: Mus musculus; assay: Efficacy in BALB/c mouse measured as reduction in log TCID50 of RSV per gram of lung at 90 mg/kg, sc; type: functional; settings: route subcutaneous
[6] = test system: Cotton rat; assay: Efficacy in cotton rat measured as reduction in log TCID50 of RSV per gram of lung at 1.33 mg/mL; type: functional, organism-based; settings: Sigmodon
[7] = test system: Cotton rat; assay: Efficacy in cotton rat measured as reduction in log TCID50 of RSV per gram of lung at 0.5 mg/mL; type: functional, Sigmodon
[8] = test system: Cotton rat; assay: Efficacy in cotton rat measured as reduction in log TCID50 of RSV per gram of lung at 2.0 mg/mL; type: functional

Row | SMILES | EC50 [1] [nM] | CC50 [2] [nM] | selectivity ratio [3] | other results
1 | CC(C)CCn1c(Cn2c(=O)n(CCCc3nnn[nH]3)c3ccccc32)nc2ccccc21 | 235 | 37100 | 158 | 
2 | C=C(C)n1c(=O)n(Cc2nc3ccccc3n2CCc2nn[nH]n2)c2ccccc21 |  |  | 14600 | 
3 | O=C(O)Cn1c(=O)n(Cc2nc3ccccc3[nH]2)c2ccccc21 | 155 | 20600 | 133 | 
4 | CC(C)CCn1c(Cn2c(=O)n(Cc3ccc(Cn4c(=O)ccn(CC(=O)O)c4=O)cc3)c3ccccc32)nc2ccccc21 | 3 | > 159000 | > 53000 | 
5 | CC(C)CCn1c(Cn2c(=O)n(CCCS(=O)(=O)O)c3ccccc32)nc2ccccc21 | 38 | 114000 | 3010 | 
6 | CC(C)CCn1c(Cn2c(=O)n(CC(=O)NS(C)(=O)=O)c3ccccc32)nc2ccccc21 | 613 | 152000 | 247 | 
7 | CC(C)CCn1c(Cn2c(=O)n(CCCN(C)C)c3ccccc32)nc2ccccc21 | 292 | 5300 | 18 | 
8 | CC(C)CCn1c(Cn2c(=O)n(CCCCc3nnn[nH]3)c3ccccc32)nc2ccccc21 | 15 | 14900 | 993 | 
9 | O=C(O)CN(CC(=O)O)C(=O)c1ccc(Cn2c(=O)n(Cc3nc4ccccc4n3CCCCO)c3ccccc32)cc1 | 57 | 112000 | 1960 | 
10 | NC(=O)c1ncn([C@@H]2O[C@H](CO)[C@@H](O)[C@H]2O)n1 [RIBAVIRIN] |  |  |  | Efficacy [4]: 2.5; Efficacy [5]: 1.86
11 | Oc1nc2ccccc2n1Cc1nc2ccccc2n1CCn1cnnn1 | 1200 | 92000 | 77 | 
12 | CN(C)CCCn1c(Cn2c(O)nc3ccccc32)nc2ccccc21 | 1660 | 89100 | 53 | 
13 | CC(C)CCn1c(Cn2c(=O)n(Cc3ccccc3C(=O)N[C@@H](CC(=O)O)C(=O)O)c3ccccc32)nc2ccccc21 | 6 | 154000 | ≥ 25700 | 
14 | C=C(C)n1c(=O)n(Cc2nc3ccccc3n2CCCc2nnn[nH]2)c2ccccc21 | 14 | > 330 | > 23 | 
15 | CC(C)CCn1c(Cn2c(=O)n(CCCCS(=O)(=O)O)c3ccccc32)nc2ccccc21 | 52 | 2900 | 56 | 
16 | CC(C)CCn1c(Cn2c(=O)n(CCCCC(=O)O)c3ccccc32)nc2ccccc21 | 8 | 16500 | 2060 | 
17 | O=c1n(Cc2nc3ccccc3[nH]2)c2ccccc2n1Cc1ccccc1S(=O)(=O)O | 13 | 130000 | 9970 | 
18 | CC(C)CCn1c(Cn2c(=O)n(CC(=O)NS(=O)(=O)c3ccccc3)c3ccccc32)nc2ccccc21 | 1210 | 14100 | 12 | 
19 | CC(C)n1c(=O)n(Cc2nc3ccccc3n2CCc2nnn[nH]2)c2ccccc21 | 15 | 177000 | 11800 | 
20 | C=C(C)n1c(=O)n(Cc2nc3ccccc3n2CCc2nnn[nH]2)c2ccccc21 | 8 | > 249000 |  | Activity [6]: Toxic
21 | CC(C)CCn1c(Cn2c(=O)n(Cc3ccc(C(=O)O)cc3)c3ccccc32)nc2ccccc21 | 11 | 27300 | 2480 | 
22 | CC(C)CCn1c(Cn2c(=O)n(CCN(C)C)c3ccccc32)nc2ccccc21 | 400 | 10000 | 25 | 
23 | C=C(C)n1c(=O)n(Cc2nc3ccccc3n2Cc2nn[nH]n2)c2ccccc21 | 8440 | 181000 | 21 | 
24 | CC(C)CCn1c(Cn2c(=O)n(Cc3ccc(C(=O)N[C@@H](CP(=O)(O)O)C(=O)O)cc3)c3ccccc32)nc2ccccc21 | 34 | > 114000 | > 3350 | Efficacy [7]: 2.43

Row | SMILES | EC50 [1] [nM] | CC50 [2] [nM] | selectivity ratio [3] | other results
25 | CC(C)CCn1c(Cn2c(=O)n(CCCCCc3nnn[nH]3)c3ccccc32)nc2ccccc21 | 13 | 90000 | 6920 | Activity ([8]; Sigmodon): Toxic
26 | CCOP(=O)(O)c1ccc(Cn2c(=O)n(Cc3nc4ccccc4n3CCC(C)C)c3ccccc32)cc1 | 48 | > 180000 | > 3350 | 
27 | CC(C)CCn1c(Cn2c(=O)n(Cc3ccc(C(=O)N[C@@H](CC(=O)O)C(=O)O)cc3)c3ccccc32)nc2ccccc21 | 5 | > 144000 | > 28800 | Efficacy [8]: 2.6
28 | O=c1n(Cc2ccc(O)cc2)c2ccccc2n1Cc1nc2ccccc2[nH]1 | 63 | 58700 | 932 | 
29 | CC(C)CCn1c(Cn2c(=O)n(CCCC(=O)O)c3ccccc32)nc2ccccc21 | 75 | 138000 | 1840 | 
30 | CC(C)CCn1c(Cn2c(=O)n(CC(=O)O)c3ccccc32)nc2ccccc21 | 163 | 194000 |  | 
31 | CC(C)CCn1c(Cn2c(=O)n(Cc3cccc(C(=O)O)c3)c3ccccc32)nc2ccccc21 | 10 | 10700 | 1070 | 
32 | Oc1nc2ccccc2n1Cc1nc2ccccc2[nH]1 | 1010 | 228000 | 226 | 
33 | Cn1c(=O)n(Cc2nc3ccccc3[nH]2)c2ccccc21 | 593 | > 202000 | > 340 | 
34 | O=c1n(Cc2ccccc2)c2ccccc2n1Cc1nc2ccccc2[nH]1 | 114 | 129000 | 1130 | 
35 | O=C(O)Cn1c(=O)n(Cc2nc3ccccc3n2CCCO)c2ccccc21 | 1930 | 229000 | 119 | 
36 | O=C(O)c1ccc(Cn2c(=O)n(Cc3nc4ccccc4n3CCCO)c3ccccc32)cc1 | 49 | 210000 | 4280 | 
37 | COc1ccc(Cn2c(=O)n(Cc3nc4ccccc4[nH]3)c3ccccc32)cc1 | 333 | 41100 | 123 | 
38 | CC(C)CCn1c(Cn2c(=O)n(CCC(=O)O)c3ccccc32)nc2ccccc21 | 15 | 102000 | 6810 | 
39 | O=C(O)c1cccc(Cn2c(=O)n(Cc3nc4ccccc4[nH]3)c3ccccc32)c1 | 7 | > 194000 | 6430 | 
40 | CC(C)CCn1c(Cn2c(=O)n(CCCCCC(=O)O)c3ccccc32)nc2ccccc21 | 15 | 16500 | 1100 | 
41 | CC(C)CCn1c(Cn2c(=O)n(Cc3ccc(CP(=O)(O)O)cc3)c3ccccc32)nc2ccccc21 | 51 | 2800 | 55 | 
42 | O=c1n(Cc2ccc(P(=O)(O)O)cc2)c2ccccc2n1Cc1nc2ccccc2[nH]1 | 368 | > 174000 | > 473 | 
43 | C=C(C)n1c(=O)n(Cc2nc3ccccc3n2CCCN(C)C)c2ccccc21 | 75 | 19900 | 265 | 
44 | CC(C)CCn1c(Cn2c(=O)n(Cc3nn[nH]n3)c3ccccc32)nc2ccccc21 | 500 | > 210000 | > 420 | 
45 | CC(C)CCn1c(Cn2c(=O)n(Cc3ccccc3C(=O)O)c3ccccc32)nc2ccccc21 | 11 | 15700 | 1430 | 
46 | O=C(O)c1ccc(Cn2c(=O)n(Cc3nc4ccccc4n3CCCCO)c3ccccc32)cc1 | 4 | > 196000 | > 49000 | 
47 | CC(C)CCn1c(Cn2c(=O)n(Cc3cc(C(=O)O)cc(C(=O)O)c3)c3ccccc32)nc2ccccc21 | 656 | > 168000 | > 256 | 
